# Measured values as given in patent US8119689B2, “Adjuvants on the basis of bisacyloxypropylcystene conjugates and derivatives and their uses in pharmaceutical compositions” (Helmholtz-Zentrum Fuer Infektionsforschung GmbH, priority 2005, dated 2012).
# “Also recorded” adds a separate entry of the source.
# Key:
# [1] = test system: β-gal antigen-specific IgG isotypes; test: β-gal-specific IgG isotypes in sera of immunized mice (isotype ELISA); assay type: in vivo
# Protocol: FIG. 8: FIG. 8 provides the analysis of beta-Gal specific IgG isotypes in sera of immunized mice. Anti-beta-Gal specific IgG isotypes of the groups immunized with PBS, (control) beta-Gal+either BPPcysGlyc4armPEG or BPPcysPEG (FIG. 8A) or BPPcysAda or Ada alone (FIG. 8B), or beta-Gal alone of mice immunized by the i.n. or s.c. route were determined by ELISA. Results are expressed as end point titers. IgG titers represent the mean of five animals per experimental group. Differences were statistically significant at p<0.05 (*) with respect to mice receiving antigen alone. One representative out of four independent experiments is shown. SEM is indicated by vertical lines.
# Isotyp ELISA: 96-well Nunc-Immuno MaxiSorp assay plates (Nunc, Roskilde, Denmark) were coated with 100 μl of β-gal (Boehringer, Mannheim, Germany) at 5 μg/ml in 0.05 M carbonate buffer (pH 8.2) per well. Serial two-fold dilutions of sera or lavages in PBS with 1% BSA and 0.05% Tween 20 were added (100 μl/well), and plates incubated for 2 h at 37° C. After washing, biotin-conjugated rat anti-mouse IgG1 or IgG2a (Pharmingen, Hamburg, Germany) were added to determine IgG subclasses. Plates were incubated for an additional 1 h at 37° C. After four washes, 100 μl of peroxidase-conjugated streptavidin (Pharmingen) was added to cells and plates incubated at 37° C. for 30 min. After four washes, reactions were developed with ABTS in 0.1 M citrate-phosphate buffer (pH 4.35) containing 0.01% H2O2. To determine the concentration of IgG subclasses in serum, standard curves were obtained by coating the wells with an isotype-specific goat anti-mouse IgG, and then by incubating with purified mouse IgG1 or IgG2a antibodies (Dianova, Hamburg, Germany).
# [2] = test system: β-gal-specific antibodies; test: Serum β-gal-specific IgG titers after i.n. or s.c. vaccination (ELISA); assay type: in vivo, BALB/c mice
# Protocol: FIG. 5: FIG. 5 illustrates the humoral responses following vaccination using BPPcysGlyc4armPEG and BPPcysAda, respectively, as adjuvant. Mice were immunised by intranasal (i.n.) and subcutaneous, transcutaneous (topical vaccination) (s.c.) routes with either β-galactosidase (30 μg) alone or β-galactosidase mixed with BPPcysGlyc4armPEG or BPPcysAda on days 0, 14 and 28. At day 38 post primary immunisation, serum samples were collected and the titre of 1-galactosidase-specific antibodies was determined by ELISA. As a control, a group in which animals were immunized with β-galactosidase alone was used (A). In (B) and (C) the kinetic of antigen specific serum IgG is shown for intranasal vaccination (B) and parenteral vaccination (C), respectively. […] Differences were statistically significant at p<0.05 (*) with respect to mice receiving antigen alone. One representative out of four independent experiments is shown. SEM is indicated by vertical lines.
# Experimental protocol: six-eight weeks-old female BALB/c (H-2d) mice were purchased from Harlan Winkelmann GmbH (Borchen, Germany) and treated in accordance with local and European Community guidelines. […] Endpoint titers were expressed as the reciprocal log2 of the last dilution, which gave an optical density at 405 nm of 0.1 units above the values of the negative controls after 15 to 30 min of incubation.
# [3] = test system: spleen cells; test: ELISPOT of cytokine producing spleen cells from vaccinated mice; assay type: in vivo
# Protocol: FIG. 9: FIG. 9 provides the cytokine profile (IFNγ, IL-4 and IL-2) secreted by in vitro re-stimulated spleen cells from mice vaccinated with either BPPcysGlyc4armPEG or BPPcysMPEG (A), or BPPcysAda (B) and the model antigen β-gal (30 μg) alone. Results are expressed as spot forming units with subtracted background in the immunized groups with respect to the non-immunized control mice. Differences were statistically significant at p<0.05 (*) with respect to mice receiving antigen alone.
# Experimental protocol: Spleens were removed and pooled for analysis of cellular immune responses. Cells were grown in RPMI 1640 supplemented with 10% fetal calf serum, 100 U/ml of penicillin, 50 μg/ml of streptomycin, 5×10^−5 M 2-mercaptoethanol and 1 mM L-glutamine (GIBCO BRL, Karlsruhe, Germany) and maintained at 37° C. in a humidified 5% CO2 atmosphere. […] Coat ELISPOT plate with 100 μl/well of purified capture antibody at 10 μg/ml in coating buffer, incubate at 4° C. overnight. After 6× washing steps, the plates were blocked with 200 μl/well of complete RPMI-1640 at room temperature for 1 hour. The activated cells were seeded at 100 μl per well and incubate at 37° C., in a 5% CO2 humidified incubator for 24 hours or 48 hours. After 5× washing steps with washing buffer and 1× step with distilled water, 100 μl/well of the biotinylated detection antibody with a concentration of 1 μg/ml in Assay Diluent was added and incubated at room temperature for 2 hrs. After further washing steps 100 μl/well of the AV-HRP at 1/1000 dilution in Assay Diluent was added and incubated at room temperature for 30 minutes. After further washing steps 100 μl/well of AEC Substrate Solution was added and developed at room temperature for 20-60 minutes until visible spots appeared. After washing steps with (3×) with 200 μl/well distilled water, the plates were air-dried and analyzed by counting the spots by an ELISPOT reader. Each concentration was tested in triplicates.
compound,measurement,setting,value
"CCCCCCCCCCCCCCCC(=O)OCC(CSC[C@H](N)C(=O)N[C@H]1[C@@H](O)[C@H](n2cnc3c(N)ncnc32)O[C@@H]1CO)OC(=O)CCCCCCCCCCCCCCC (single isomer, unassigned) [BPPcysAda, S-[2,3-bis(palmitoyloxy)-(2S or 2R)-propyl]-L-cysteinylcarboxy-3′Amino-3′-deoxyadenosine]","antigen specific antibodies of the IgG1 subtype, intranasal",[1]; intranasal administration,significantly enhances; also recorded: strongly increased
same,"antigen specific antibodies of the IgG2a isotype, intranasal",[1]; intranasal administration,significantly enhances; also recorded: strongly increased
same,"expression of the IgG1 isotype, subcutaneous",[1]; subcutaneous administration,strongly increased
same,"expression of the IgG2a isotype, subcutaneous",[1]; subcutaneous administration,strongly increased
same,"β-gal-specific serum IgG titers, i.n. administration","[2]; i.n. with β-gal, vs antigen alone",enhanced expression; also recorded: very high titers; also recorded: significantly higher levels
same,"β-gal-specific serum IgG titers, s.c. route","[2]; s.c. co-injection with β-gal, vs β-gal alone",enhanced expression; also recorded: increased
same,splenic IL-2 producing cells,[3]; i.n. and s.c. route,enhanced expression
same,splenic IL-4 producing cells,[3]; i.n. and s.c. route,enhanced expression
same,number of splenic IFNγ producing cells,[3]; restimulation with MHC class I-restricted β-Galactosidase peptide,increment
